Reference: patent US20250302832A1, “PYRAZINE DERIVATIVES AND USES THEREOF” (FOGHORN THERAPEUTICS INC., priority 2022, published 2025)

Legend:
HiBit-BRM fusion protein = biological target: T1, HiBit-BRM fusion protein (Homo sapiens, UniProt P51531); test: HiBiT-BRM cell-based degradation assay (Nano-Glo HiBiT lytic detection, 24 h); conditions: HeLa cell line expressing HiBiT-BRM; for DC50: read-out: BRM HiBit Degradation IC50
T1 construct: expressed in transfected cells
Method in brief: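 Luminescence from LgBiT complementation quantified remaining HiBiT-BRM in stably expressing HeLa cells after 24 h compound exposure (top final dose 30 μM, 3-fold, 10 points, duplicate). Degradation expressed as percent relative to DMSO and a 2 μM reference degrader.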

[1] = biological target: T2, HiBit-BRG1 fusion protein (Homo sapiens, UniProt P51532); test: HiBiT-BRG1 cell-based degradation assay (Nano-Glo HiBiT lytic detection, 24 h); conditions: HeLa cell line expressing HiBit-BRG1 and LgBit; for Dmax: read-out: BRG1 HiBit Degradation Maximum (%)
T2 construct: expressed in transfected cells
T2 sequence (P51532 whole entry, the tested form may be a part): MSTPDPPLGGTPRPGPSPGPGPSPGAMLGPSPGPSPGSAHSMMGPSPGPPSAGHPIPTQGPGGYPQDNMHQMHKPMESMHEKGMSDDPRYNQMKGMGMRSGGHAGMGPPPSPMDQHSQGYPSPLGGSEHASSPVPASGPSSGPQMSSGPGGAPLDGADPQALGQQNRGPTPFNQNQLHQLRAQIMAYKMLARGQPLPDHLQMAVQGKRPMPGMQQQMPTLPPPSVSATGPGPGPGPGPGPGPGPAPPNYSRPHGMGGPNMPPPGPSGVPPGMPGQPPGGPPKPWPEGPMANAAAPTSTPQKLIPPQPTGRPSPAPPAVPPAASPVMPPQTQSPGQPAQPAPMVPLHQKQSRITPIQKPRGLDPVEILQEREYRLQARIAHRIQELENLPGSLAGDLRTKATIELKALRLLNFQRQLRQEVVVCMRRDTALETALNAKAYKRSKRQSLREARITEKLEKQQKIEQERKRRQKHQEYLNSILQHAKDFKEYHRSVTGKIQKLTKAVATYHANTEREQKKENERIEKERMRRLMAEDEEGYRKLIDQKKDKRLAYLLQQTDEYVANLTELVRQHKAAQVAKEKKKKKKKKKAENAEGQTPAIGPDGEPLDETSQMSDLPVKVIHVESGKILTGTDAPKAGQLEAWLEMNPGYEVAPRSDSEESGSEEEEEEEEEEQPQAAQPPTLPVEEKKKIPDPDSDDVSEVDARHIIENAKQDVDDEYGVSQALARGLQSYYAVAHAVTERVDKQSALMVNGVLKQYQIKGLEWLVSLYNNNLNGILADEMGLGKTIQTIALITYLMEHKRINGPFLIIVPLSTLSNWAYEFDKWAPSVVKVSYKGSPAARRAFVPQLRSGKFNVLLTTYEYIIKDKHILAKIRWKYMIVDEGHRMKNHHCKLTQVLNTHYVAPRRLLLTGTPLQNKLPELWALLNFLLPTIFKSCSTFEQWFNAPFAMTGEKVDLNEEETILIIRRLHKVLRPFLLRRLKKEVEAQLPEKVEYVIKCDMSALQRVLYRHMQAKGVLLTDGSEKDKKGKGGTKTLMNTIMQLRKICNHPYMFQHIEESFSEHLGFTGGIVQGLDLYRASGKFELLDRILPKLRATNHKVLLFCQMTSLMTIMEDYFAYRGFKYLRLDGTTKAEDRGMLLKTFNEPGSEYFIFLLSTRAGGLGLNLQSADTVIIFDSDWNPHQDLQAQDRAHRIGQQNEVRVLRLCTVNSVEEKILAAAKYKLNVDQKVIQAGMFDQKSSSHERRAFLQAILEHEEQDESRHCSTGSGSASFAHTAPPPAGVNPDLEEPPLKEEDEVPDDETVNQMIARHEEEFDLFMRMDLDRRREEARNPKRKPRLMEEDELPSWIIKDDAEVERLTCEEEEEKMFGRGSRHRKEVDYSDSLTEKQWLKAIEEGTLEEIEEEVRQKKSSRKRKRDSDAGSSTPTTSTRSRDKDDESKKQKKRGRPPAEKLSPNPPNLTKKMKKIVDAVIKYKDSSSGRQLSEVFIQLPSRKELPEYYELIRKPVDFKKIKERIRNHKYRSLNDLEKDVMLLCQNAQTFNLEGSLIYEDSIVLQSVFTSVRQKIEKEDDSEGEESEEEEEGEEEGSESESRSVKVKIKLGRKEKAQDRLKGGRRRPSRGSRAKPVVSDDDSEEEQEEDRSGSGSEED
Method in brief: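 Luminescence from HiBiT/LgBiT complementation after lytic detection reagent was read following 24 h compound exposure of HeLa cells stably carrying HiBiT-BRG1 plus LgBiT (5000 cells/well). Signal scaled to % degradation using DMSO-treated cells as 0% and cells given 2 μM known BRM/BRG1 degrader as 100%.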

T1 sequence (P51531 whole entry, the tested form may be a part): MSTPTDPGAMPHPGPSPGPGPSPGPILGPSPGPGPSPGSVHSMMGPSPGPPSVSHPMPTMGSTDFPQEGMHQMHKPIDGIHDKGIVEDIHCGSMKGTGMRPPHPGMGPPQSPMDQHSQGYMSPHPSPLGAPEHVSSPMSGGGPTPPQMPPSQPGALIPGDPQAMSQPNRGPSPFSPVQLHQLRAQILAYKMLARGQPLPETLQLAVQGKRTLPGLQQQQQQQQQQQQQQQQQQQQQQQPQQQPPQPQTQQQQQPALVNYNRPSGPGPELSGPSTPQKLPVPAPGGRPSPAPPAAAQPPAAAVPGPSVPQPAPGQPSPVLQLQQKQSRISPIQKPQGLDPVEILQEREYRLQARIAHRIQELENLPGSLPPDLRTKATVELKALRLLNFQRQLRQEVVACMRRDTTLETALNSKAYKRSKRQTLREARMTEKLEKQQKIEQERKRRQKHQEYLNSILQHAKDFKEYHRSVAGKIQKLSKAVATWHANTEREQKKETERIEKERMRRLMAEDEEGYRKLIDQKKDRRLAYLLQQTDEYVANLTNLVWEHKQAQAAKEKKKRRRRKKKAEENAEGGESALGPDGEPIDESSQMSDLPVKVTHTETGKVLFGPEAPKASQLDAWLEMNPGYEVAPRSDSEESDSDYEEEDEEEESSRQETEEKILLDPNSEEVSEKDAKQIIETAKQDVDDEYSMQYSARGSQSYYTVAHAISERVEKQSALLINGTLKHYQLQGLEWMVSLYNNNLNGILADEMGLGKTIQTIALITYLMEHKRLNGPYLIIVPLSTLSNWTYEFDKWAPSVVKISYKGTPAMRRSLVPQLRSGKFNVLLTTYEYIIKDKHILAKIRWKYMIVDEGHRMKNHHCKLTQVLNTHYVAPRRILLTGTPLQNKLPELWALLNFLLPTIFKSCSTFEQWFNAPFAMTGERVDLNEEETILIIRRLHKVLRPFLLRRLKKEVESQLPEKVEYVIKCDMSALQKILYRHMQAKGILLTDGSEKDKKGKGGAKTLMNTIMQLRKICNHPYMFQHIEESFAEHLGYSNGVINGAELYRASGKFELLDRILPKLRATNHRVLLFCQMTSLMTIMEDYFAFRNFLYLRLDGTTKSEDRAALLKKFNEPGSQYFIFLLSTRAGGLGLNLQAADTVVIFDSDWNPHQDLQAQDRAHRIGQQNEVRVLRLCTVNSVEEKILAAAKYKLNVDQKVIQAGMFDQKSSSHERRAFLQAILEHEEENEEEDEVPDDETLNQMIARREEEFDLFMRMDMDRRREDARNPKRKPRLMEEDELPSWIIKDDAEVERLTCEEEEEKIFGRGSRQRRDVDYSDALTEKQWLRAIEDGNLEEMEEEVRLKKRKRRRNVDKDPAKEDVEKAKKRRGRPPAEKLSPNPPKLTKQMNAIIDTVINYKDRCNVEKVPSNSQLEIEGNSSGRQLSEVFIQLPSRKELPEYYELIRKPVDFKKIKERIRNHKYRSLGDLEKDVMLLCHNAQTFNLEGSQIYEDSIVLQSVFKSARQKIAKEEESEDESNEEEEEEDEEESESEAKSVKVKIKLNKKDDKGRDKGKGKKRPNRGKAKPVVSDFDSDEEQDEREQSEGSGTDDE

Structure (SMILES) | DC50 (HiBit-BRM fusion protein) [µM] | Dmax [1] [%] | DC50 ([1]; read-out: BRMG1 HiBit Degradation IC50) [µM] | BRM HiBit Degradation Maximum (%) (HiBit-BRM fusion protein) | BRG1 HiBit Degradation Maximum (%) [1]
Cc1ncsc1-c1ccc([C@H](C)NC(=O)[C@@H]2C[C@@H](O)CN2C(=O)[C@@H](c2cc(-c3cnc(N4CCC(c5cc6nnc(-c7ccccc7O)cc6n5C(C)C)CC4)nc3)no2)C(C)C)cc1 [Compound 45] | < 0.01 | > 75 | < 0.01 | A (“A” indicates maximum degradation ≥75%) | 
Cc1ncsc1-c1ccc([C@H](C)NC(=O)[C@@H]2C[C@@H](O)CN2C(=O)[C@@H](c2cc(-c3cnc(N4CCC(c5cc6nnc(-c7ccccc7O)cc6n5C5CCC5)CC4)nc3)no2)C(C)C)cc1 [Compound 46] |  | < 50 |  | C (“C” indicates maximum degradation <50%) | 
Cc1ncsc1-c1ccc([C@H](C)NC(=O)[C@@H]2C[C@@H](O)CN2C(=O)[C@@H](c2cc(-c3cnc(N4CCC(c5cc6nnc(-c7ccccc7O)cc6n5C5CCC5)CC4)nc3)no2)C(C)C)cc1 [Compound 47] | < 0.01 |  |  | A (“A” indicates maximum degradation ≥75%) | C (“C” indicates maximum degradation <50%)
Cc1ncsc1-c1ccc(CNC(=O)[C@@H]2C[C@@H](O)CN2C(=O)[C@@H](c2cc(N3CC4(CC(c5cc6nnc(-c7ccccc7O)cc6n5C5CCC5)C4)C3)no2)C(C)C)cc1 [Compound 48, (2S,4R)-1-((R)-2-(3-(6-(5-cyclobutyl-3-(2-hydroxyphenyl)-5H-pyrrolo[3,2-c]pyridazin-6-yl)-2-azaspiro[3.3]heptan-2-yl)isoxazol-5-yl)-3-methylbutanoyl)-4-hydroxy-N-(4-(4-methylthiazol-5-yl)benzyl)pyrrolidine-2-carboxamide] | > 0.01 | < 50 |  | A (“A” indicates maximum degradation ≥75%) | 
CC(C)C(C(=O)N1C[C@H](O)C[C@H]1C(=O)N[C@@H](C)c1ccccc1)c1cc(N2CC3(CC(c4cc5nnc(-c6ccccc6O)cc5n4C4CCC4)C3)C2)no1 (stereo partly drawn) [Compound 49, (2S,4R)-1-[2-(3-{6-[5-cyclobutyl-3-(2-hydroxyphenyl)pyrrolo[3,2-c]pyridazin-6-yl]-2-azaspiro[3.3]heptan-2-yl}-1,2-oxazol-5-yl)-3-methylbutanoyl]-4-hydroxy-N-[(1S)-1-phenylethyl]pyrrolidine-2-carboxamide] | > 0.01 | < 50 |  | A (“A” indicates maximum degradation ≥75%) | 
CC[C@H](C)NC(=O)[C@@H]1C[C@@H](O)CN1C(=O)C(c1cc(N2CC3(CC(c4cc5nnc(-c6ccccc6O)cc5n4C4CCC4)C3)C2)no1)C(C)C (stereo partly drawn) [Compound 51, (2S,4R)-N-((S)-sec-butyl)-1-(2-(3-(6-(5-cyclobutyl-3-(2-hydroxyphenyl)-5H-pyrrolo[3,2-c]pyridazin-6-yl)-2-azaspiro[3.3]heptan-2-yl)isoxazol-5-yl)-3-methylbutanoyl)-4-hydroxypyrrolidine-2-carboxamide] | > 0.01 | < 50 |  | A (“A” indicates maximum degradation ≥75%) | 
CC(C)C(C(=O)N1C[C@H](O)C[C@H]1C(=O)NC1CC1)c1cc(N2CC3(CC(c4cc5nnc(-c6ccccc6O)cc5n4C4CCC4)C3)C2)no1 (stereo partly drawn) [Compound 56, (2S,4R)-1-(2-(3-(6-(5-cyclobutyl-3-(2-hydroxyphenyl)-5H-pyrrolo[3,2-c]pyridazin-6-yl)-2-azaspiro[3.3]heptan-2-yl)isoxazol-5-yl)-3-methylbutanoyl)-N-cyclopropyl-4-hydroxypyrrolidine-2-carboxamide] | > 0.01 | < 50 |  | A (“A” indicates maximum degradation ≥75%) | 

More lines, main results first:

DC50 (HiBit-BRM fusion protein) [µM] | Dmax [1] [%] | DC50 ([1]; read-out: BRMG1 HiBit Degradation IC50) [µM] | Structure (SMILES) | BRM HiBit Degradation Maximum (%) (HiBit-BRM fusion protein) | BRG1 HiBit Degradation Maximum (%) [1]
> 0.01 | < 50 |  | CC(C)C(C(=O)N1C[C@H](O)C[C@H]1C(=O)NCc1ccc(F)cc1)c1cc(N2CC3(CC(c4cc5nnc(-c6ccccc6O)cc5n4C4CCC4)C3)C2)no1 (stereo partly drawn) [Compound 50, (2S,4R)-1-(2-(3-(6-(5-cyclobutyl-3-(2-hydroxyphenyl)-5H-pyrrolo[3,2-c]pyridazin-6-yl)-2-azaspiro[3.3]heptan-2-yl)isoxazol-5-yl)-3-methylbutanoyl)-N-(4-fluorobenzyl)-4-hydroxypyrrolidine-2-carboxamide] | A (“A” indicates maximum degradation ≥75%) | 
< 0.01 | < 50 |  | C#Cc1ccc(CNC(=O)[C@@H]2C[C@@H](O)CN2C(=O)C(c2cc(N3CC4(CC(c5cc6nnc(-c7ccccc7O)cc6n5C5CCC5)C4)C3)no2)C(C)C)c(OCCCOC)c1 (stereo partly drawn) [Compound 52, (2S,4R)-1-(2-(3-(6-(5-cyclobutyl-3-(2-hydroxyphenyl)-5H-pyrrolo[3,2-c]pyridazin-6-yl)-2-azaspiro[3.3]heptan-2-yl)isoxazol-5-yl)-3-methylbutanoyl)-N-(4-ethynyl-2-(3-methoxypropoxy)benzyl)-4-hydroxypyrrolidine-2-carboxamide] | A (“A” indicates maximum degradation ≥75%) | 
> 0.01 | < 50 |  | C#CCNC(=O)[C@@H]1C[C@@H](O)CN1C(=O)C(c1cc(N2CC3(CC(c4cc5nnc(-c6ccccc6O)cc5n4C4CCC4)C3)C2)no1)C(C)C (stereo partly drawn) [Compound 53, (2S,4R)-1-(2-(3-(6-(5-cyclobutyl-3-(2-hydroxyphenyl)-5H-pyrrolo[3,2-c]pyridazin-6-yl)-2-azaspiro[3.3]heptan-2-yl)isoxazol-5-yl)-3-methylbutanoyl)-4-hydroxy-N-(prop-2-yn-1-yl)pyrrolidine-2-carboxamide] | A (“A” indicates maximum degradation ≥75%) | 
> 0.01 | < 50 |  | CC(C)NC(=O)[C@@H]1C[C@@H](O)CN1C(=O)C(c1cc(N2CC3(CC(c4cc5nnc(-c6ccccc6O)cc5n4C4CCC4)C3)C2)no1)C(C)C (stereo partly drawn) [Compound 54, (2S,4R)-1-(2-(3-(6-(5-cyclobutyl-3-(2-hydroxyphenyl)-5H-pyrrolo[3,2-c]pyridazin-6-yl)-2-azaspiro[3.3]heptan-2-yl)isoxazol-5-yl)-3-methylbutanoyl)-4-hydroxy-N-isopropylpyrrolidine-2-carboxamide] | A (“A” indicates maximum degradation ≥75%) | 
> 0.01 | < 50 |  | CC(C)C(C(=O)N1C[C@H](O)C[C@H]1C(=O)NCC1CC1)c1cc(N2CC3(CC(c4cc5nnc(-c6ccccc6O)cc5n4C4CCC4)C3)C2)no1 (stereo partly drawn) [Compound 55, (2S,4R)-1-(2-(3-(6-(5-cyclobutyl-3-(2-hydroxyphenyl)-5H-pyrrolo[3,2-c]pyridazin-6-yl)-2-azaspiro[3.3]heptan-2-yl)isoxazol-5-yl)-3-methylbutanoyl)-N-(cyclopropylmethyl)-4-hydroxypyrrolidine-2-carboxamide] | A (“A” indicates maximum degradation ≥75%) | 
< 0.01 | < 50 |  | C#Cc1ccc(CNC(=O)[C@@H]2C[C@@H](O)CN2C(=O)C(c2cc(N3CC4(CC(c5cc6nnc(-c7ccccc7O)cc6n5C5CCC5)C4)C3)no2)C(C)C)cc1 (stereo partly drawn) [Compound 57, (2S,4R)-1-(2-(3-(6-(5-cyclobutyl-3-(2-hydroxyphenyl)-5H-pyrrolo[3,2-c]pyridazin-6-yl)-2-azaspiro[3.3]heptan-2-yl)isoxazol-5-yl)-3-methylbutanoyl)-N-(4-ethynylbenzyl)-4-hydroxypyrrolidine-2-carboxamide] | A (“A” indicates maximum degradation ≥75%) | 
< 0.01 | < 50 |  | C#Cc1ccc(CNC(=O)[C@@H]2C[C@@H](O)CN2C(=O)C(c2cc(N3CC4(CC(c5cc6nnc(-c7ccccc7O)cc6n5C5CCC5)C4)C3)no2)C(C)C)c(OC)c1 (stereo partly drawn) [Compound 58, (2S,4R)-1-(2-(3-(6-(5-cyclobutyl-3-(2-hydroxyphenyl)-5H-pyrrolo[3,2-c]pyridazin-6-yl)-2-azaspiro[3.3]heptan-2-yl)isoxazol-5-yl)-3-methylbutanoyl)-N-(4-ethynyl-2-methoxybenzyl)-4-hydroxypyrrolidine-2-carboxamide] | A (“A” indicates maximum degradation ≥75%) | 
> 0.01 | < 50 |  | C#Cc1ccc(CNC(=O)[C@@H]2C[C@@H](O)CN2C(=O)C(c2cc(N3CC4(CC(c5cc6nnc(-c7ccccc7O)cc6n5C5CCC5)C4)C3)no2)C(C)C)c(Cl)c1 (stereo partly drawn) [Compound 59, (2S,4R)-N-(2-chloro-4-ethynylbenzyl)-1-(2-(3-(6-(5-cyclobutyl-3-(2-hydroxyphenyl)-5H-pyrrolo[3,2-c]pyridazin-6-yl)-2-azaspiro[3.3]heptan-2-yl)isoxazol-5-yl)-3-methylbutanoyl)-4-hydroxypyrrolidine-2-carboxamide] | A (“A” indicates maximum degradation ≥75%) | 
< 0.01 | < 50 |  | C#Cc1ccc([C@H](C)NC(=O)[C@@H]2C[C@@H](O)CN2C(=O)C(c2cc(N3CC4(CC(c5cc6nnc(-c7ccccc7O)cc6n5C5CCC5)C4)C3)no2)C(C)C)cc1 (stereo partly drawn) [Compound 60, (2S,4R)-1-(2-(3-(6-(5-cyclobutyl-3-(2-hydroxyphenyl)-5H-pyrrolo[3,2-c]pyridazin-6-yl)-2-azaspiro[3.3]heptan-2-yl)isoxazol-5-yl)-3-methylbutanoyl)-N-((S)-1-(4-ethynylphenyl)ethyl)-4-hydroxypyrrolidine-2-carboxamide] | A (“A” indicates maximum degradation ≥75%) | 
